The test system of test [1] is E. coli KCTC1682. In kind it is cell-based, Escherichia coli. The following applies: E. coli KCTC1682; broth microdilution, 37°C, 16 h; three independent experiments in triplicate, SD 14.0%.
The test system of test [2] is E. coli KCTC2593. The format is cell-based, Escherichia coli. The conditions noted are these: E. coli KCTC2593; broth microdilution, 37°C, 16 h; three independent experiments in triplicate, SD 14.0%. For orientation: Broth dilution looks for growth in wells or tubes with falling amounts of substance.
Description: (§1) Escherichia coli KCTC 1682, E. coli KCTC 2593, E. coli KCTC 2571, Salmonella typhimurium KCTC 1926, Pseudomonas aeruginosa KCTC 1637, P. aeruginosa KCTC 2004, P. aeruginosa KCTC 2513, Bacillus subtilis KCTC 3068, B. subtilis KCTC 1021, B. subtilis KCTC 1022, Staphylococcus epidermidis KCTC 1917, Staphylococcus aureus KCTC 1621, S. aureus KCTC 1916, and S. aureus KCTC 3881 were purchased from the Korean Collection for Type Cultures, Korea Research Institute of Bioscience & Biotechnology (Taejon, Korea). Methicillin-resistant S. aureus (MRSA) (CCARM 3089, CCARM 3090, CCARM 3108, CCARM 3114, and CCARM 3126), multidrug-resistant E. coli (MDREC) (CCARM 1229 and CCARM 1238), multidrug-resistant S. typhimurium (MDRST) (CCARM 8003, CCARM 8007, and CCARM 8009), multidrug-resistant Acinetobacter baumanii (MDRAB) (CCARM 12005, CCARM 12035, CCARM 12036, CCARM 12037), and multidrug-resistant P. aeruginosa (MDRPA) (CCARM 2002, CCARM 2003, CCARM 2095, and CCARM 2163) were obtained from the Culture Collection of Antibiotic-Resistant Microbes (CCARM) at Seoul Women’s University in Korea. The antimicrobial activities of the peptides against selected organisms, including three Gram-positive, three Gram-negative, and five antibiotic-resistant bacteria, were determined using a broth microdilution assay. Briefly, single colonies of bacteria and fungi were inoculated into Luria-Bertani (LB) medium and cultured overnight at 37°C. An aliquot of the culture was transferred to 10 mL of fresh LB and incubated for an additional 3–5 h at 37°C until it reached the mid-logarithmic phase. Two-fold serial dilutions of the peptides in 1% peptone were prepared. The serial dilutions (100 µL) were added to 100 µL of cells (2×10^6 colony-forming units (CFU)/mL) in 96-well microtiter plates and incubated at 37°C for 16 h. […] MIC values were calculated as the average of triplicate measurements from three independent assays.
The test system of test [3] is E.coli KCTC2571. The format is cell-based, Escherichia coli. The conditions noted are these: E.coli KCTC2571; broth microdilution, 37°C, 16 h; three independent experiments in triplicate, SD 14.0%.
Protocol: (§2) The antimicrobial activities of the peptides against selected organisms, including three Gram-positive, three Gram-negative, and five antibiotic-resistant bacteria, were determined using a broth microdilution assay. Briefly, single colonies of bacteria and fungi were inoculated into Luria-Bertani (LB) medium and cultured overnight at 37°C. An aliquot of the culture was transferred to 10 mL of fresh LB and incubated for an additional 3–5 h at 37°C until it reached the mid-logarithmic phase. Two-fold serial dilutions of the peptides in 1% peptone were prepared. The serial dilutions (100 µL) were added to 100 µL of cells (2×10^6 colony-forming units (CFU)/mL) in 96-well microtiter plates and incubated at 37°C for 16 h. […] MIC values were calculated as the average of triplicate measurements from three independent assays.
In test [4] the test system is P. aeruginosa KCTC1637. The format is cell-based, Pseudomonas aeruginosa. The conditions noted are these: P. aeruginosa KCTC1637; broth microdilution, 37°C, 16 h; three independent experiments in triplicate, SD 14.0%.
In test [5] the test system is P. aeruginosa KCTC2513. The format is cell-based, Pseudomonas aeruginosa. The following applies: P. aeruginosa KCTC2513; broth microdilution, 37°C, 16 h; three independent experiments in triplicate, SD 14.0%.
Test [6] concerns S. aureus KCTC1621. In kind it is cell-based, Staphylococcus aureus. The conditions noted are these: S. aureus KCTC1621; broth microdilution, 37°C, 16 h; three independent experiments in triplicate, SD 14.0%.
Protocol: as §2
Test [7] has as its system S. aureus KCTC1916. In kind it is cell-based, Staphylococcus aureus. The conditions noted are these: S. aureus KCTC1916; broth microdilution, 37°C, 16 h; three independent experiments in triplicate, SD 14.0%.
Protocol: as §2
For test [8], the system named is S. aureus KCTC3881. In kind it is cell-based, Staphylococcus aureus. The following applies: S. aureus KCTC3881; broth microdilution, 37°C, 16 h; three independent experiments in triplicate, SD 14.0%.
Description: as §1
In test [9] the test system is MRSA CCARM3089. In kind it is cell-based, Methicillin-resistant S. aureus. The following applies: MRSA CCARM3089; broth microdilution, 37°C, 16 h; three independent experiments in triplicate, SD 14.0%.
Description: as §1
Test [10] concerns MRSA CCARM 3090. In kind it is cell-based, Methicillin-resistant S. aureus. The conditions noted are these: MRSA CCARM 3090; broth microdilution, 37°C, 16 h; three independent experiments in triplicate, SD 14.0%.
The test system of test [11] is MRSA CCARM 3114. In kind it is cell-based, Methicillin-resistant S. aureus. The conditions noted are these: MRSA CCARM 3114; broth microdilution, 37°C, 16 h; three independent experiments in triplicate, SD 14.0%.
In test [12] the test system is MRSA CCARM 3126. In kind it is cell-based, Methicillin-resistant S. aureus. The conditions noted are these: MRSA CCARM 3126; broth microdilution, 37°C, 16 h; three independent experiments in triplicate, SD 14.0%.
Description: as §1
Test [13] concerns MDRST CCARM 8003. In kind it is cell-based, multidrug-resistant S. typhimurium. The conditions noted are these: broth microdilution, 37°C, 16 h, three independent experiments in triplicate, SD 14.0%.
The test system of test [14] is MDRST CCARM 8009. In kind it is cell-based, multidrug-resistant S. typhimurium. The conditions noted are these: broth microdilution, 37°C, 16 h, three independent experiments in triplicate, SD 14.0%.
Description: as §1
For test [15], the system named is MDREC CCARM 1238. In kind it is cell-based, multidrug-resistant E. coli. The following applies: broth microdilution, 37°C, 16 h, three independent experiments in triplicate, SD 14.0%.
The subject of test [16] is MDRAB CCARM 12005. In kind it is cell-based, multidrug-resistant Acinetobacter baumanii. The following applies: broth microdilution, 37°C, 16 h, three independent experiments in triplicate, SD 14.0%.
Test [17] has as its system MDRAB CCARM 12036. The format is cell-based, multidrug-resistant Acinetobacter baumanii. The following applies: broth microdilution, 37°C, 16 h, three independent experiments in triplicate, SD 14.0%.
Protocol: as §2
The subject of test [18] is MDRAB CCARM 12037. The format is cell-based, multidrug-resistant Acinetobacter baumanii. The following applies: broth microdilution, 37°C, 16 h, three independent experiments in triplicate, SD 14.0%.
The test system of test [19] is MDRPA CCARM 2002. In kind it is cell-based, multidrug-resistant P. aeruginosa. The conditions noted are these: broth microdilution, 37°C, 16 h, three independent experiments in triplicate, SD 14.0%.
The test system of test [20] is Standard bacterial strains. In kind it is cell-based. The following applies: average over the 14 standard bacterial strains of Table 2.
Test [21] concerns Drug-resistant bacterial strains. The conditions noted are these: average over the 18 drug-resistant bacterial strains of Table 3. The procedure, abridged:
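Broth microdilution: mid-log bacteria grown in LB, 2×10^6 CFU/mL, mixed 1:1 with two-fold peptide dilutions in 1% peptone, 16 h at 37°C. Strains include KCTC reference isolates and CCARM MRSA and multidrug-resistant E. coli, S. typhimurium, A. baumanii, P. aeruginosa; MIC averaged from triplicates over three independent assays.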

Where no end group is shown, it is not given here.

The MIC is the least concentration at which growth counts as inhibited.

“FFHHIFRGIVHVGKTIHRLVTG [Pis-1, reference compound]”: the MIC came out at 1.0 µM in [1]; 1.0 µM in test [2]; 1.0 µM in test [3]; 2.0 µM in test [4]; 2.0 µM in [5]; 1.0 µM in [6]. Also, the MIC was determined as 1.0 µM in test [7]; 2.0 µM in test [8]; 8.0 µM in test [9]; 8.0 µM in test [10]; 4.0 µM in [11]; 4.0 µM in test [12]. In addition, the MIC is on record as 4.0 µM in test [13]; 4.0 µM in test [14]; 4.0 µM in test [15]; 2.0 µM in test [16]; 2.0 µM in test [17]; 2.0 µM in [18]. The MIC in test [19] was 2.0 µM. For the same sequence, the results for the “Average MIC” value in test [20] and in test [21] were 1.5 µM and 3.6 µM, respectively.
